Data from article PMC8398714, “Synthesis and Evaluation of Biological Activities of Bis(spiropyrazolone)cyclopropanes: A Potential Application against Leishmaniasis” (Molecules, 2021).
Where “and” joins values, the source holds several entries; their conditions need not be identical. Equal values may be shown once.

Experiments:
HeLa = experiment: MTS cell viability assay on HeLa cells; type: cell-based; details: Homo sapiens, 48 h, Dox 1 µM, mean ± SEM, NA = no activity, read-out: Percentage (%) of inhibition, HeLa
MCF-7 = experiment: MTS cell viability assay on MCF-7 cells; type: cell-based; details: Homo sapiens, MCF7, 48 h, Dox 1 µM, mean ± SEM, NA = no activity, read-out: Percentage (%) of inhibition, MCF-7
Experimental: (§1) Five tumor human cancer cell lines—cerebral astrocytoma (D-384), grade IV prostatic adenocarcinoma (PC-3), mammary adenocarcinoma (MCF-7), human colon carcinoma (RKO) and lung carcinoma (A-549)—along with one immortalized hamster cell line (CHO K-1) were used. The cells PC-3, MCF-7 and RKO were cultured in RPMI-1640, D-384 on DMEM and CHO K-1 on HAM F-12 medium supplemented with 10% fetal bovine serum (FBS, Invitrogen, Karlsruhe, Germany), 1% antibiotic-antimitotic solution (100 units/mL penicillin G, 100 µg/mL streptomycin, and 0.25 µg/mL amphotericin B, Gibco, Grand Island, NY, USA), and 1% L-glutamine (2 mM, Gibco). The cells were incubated at 37 °C in a 5% CO2 atmosphere. The viable cells were counted using the trypan blue exclusion method in a hemocytometer.
(§2) The MTS (5-[3-(carboxymethoxy)phenyl]-3-(4,5-dimethyl-2-thiazolyl)-2-(4-sulfo- phenyl)-2H-tetrazolium inner salt) cell viability assay was used to assess the inhibitory effects of the extracts on the survival of human cancer cell lines. A total of 3–5 × 10^3 cells/well were seeded into 96-well plates and were allowed to adhere for 24 h. […] Each concentration/assay was performed three times. Dimethyl sulfoxide (DMSO) was used as a negative control at a final concentration of 0.1% v/v, and 1 µM Doxorubicin was used as a positive control. The cells were incubated with the treatments for 48 h, after which 20 µL MTS (5 mg/mL, Aqueous One Solution Reagent, Gibco) was added and further incubated for 4 h at 37 °C. The absorbance was measured at 570 nm. The data obtained with cells treated with DMSO were defined to represent 100% viability.

A-549 = experiment: MTS cell viability assay on A-549 cells; type: cell-based; details: Homo sapiens, A549; 100 µM, 48 h; Dox 1 µM; mean ± SEM; NA = no activity; read-out: Percentage (%) of inhibition, A-549
Experimental: as §1, §2

[1] = DPPH radical scavenging assay; details: 30 min, 515 nm
Experimental: The stock solution of the compounds was prepared by dissolving 4 in dimethyl sulfoxide (DMSO) to a concentration of 4 mg/mL. The solution was diluted with methanol until a concentration of 400 µg/mL was obtained and then used immediately.
The experimental procedure was adapted from the literature. Briefly, 100 µL of a 0.2 mM methanol solution of DPPH (2, 2-diphenyl-1-picrylhydrazyl) radical were added to 100 µL of methanolic solutions of 4 prepared as serial two-fold dilutions from the stock solution in 96-well microfilter plates. Standards and edaravone were also prepared in the same concentrations. The mixture was incubated in dark at room temperature for 30 min and the absorbance was read at 515 nm on a Cytation 5 (BioTek) spectrophotometer.
The % DPPH scavenging activity was then calculated by using the following formula:(1) % DPPH scavenging = 100 × [(Asample+DPPH−Asample blank)/(ADPPH−Asolvent)]
The antioxidant activity of the compound was expressed as IC50, which is defined as the concentration that could scavenge 50% of the DPPH free radical. The IC50 values were calculated in GraphPad Prism 7.02 (GraphPad Software, Corp.) The results are given as a mean ± standard deviation (SD) of experiments done in triplicate.

RKO = experiment: MTS cell viability assay on RKO cells; type: cell-based; details: Homo sapiens, 48 h; for inhibition at 100 µM: Dox 1 µM, mean ± SEM, NA = no activity, read-out: Percentage (%) of inhibition, RKO; for IC50: 15-150 µM, mean ± SEM of triplicates
Experimental: as §1, §2

CHO-K1 cells = type: cell-based, hamster
Experimental: Cells were mixed with 150 μL low-melting-point agarose 1% (LMP, Promega, Madison, WI, USA) and added to microscope slides previously prepared with normal-melting-point agarose 1% (NMP, Invitrogen, Carlsbad, CA, USA). A third LMP agarose layer (150 µL) was added. The slides were immersed in a cooled lysing solution (pH 10) with 10% DMSO, 1% Triton X-100 (Sigma Aldrich, Saint Louis, MO, USA), 2.5 M NaCl (Loba Chemie, Mumbai, India), 100 mM EDTA and 10 mM Tris (Invitrogen, Carlsbad, CA, USA) for 12 h at 4 °C. All steps after lysis were performed under darkness or yellow light to prevent additional DNA damage. The slides were immersed for 20 min in an electrophoresis buffer solution (pH 13) with NaOH 300 mM (Fisher Scientific, Waltham, MA, USA) and EDTA 1 mM (Invitrogen, Carlsbad, CA, USA) to allow for DNA unwinding. Electrophoresis was later performed at 25 V and 300 mA for 20 min. Slides were then sprayed with a neutralization buffer (pH 7.5) 0.4 M Tris (Sigma Aldrich, Saint Louis, MO, USA). Ethidium bromide (60 µL) was added to each slide, and a cover glass was placed on the gel. The DNA migration was analyzed using a ZEISS-Axioskop 2 plus microscope with fluorescence (40×) by scoring 100 cells per slide in duplicate. After that, the tail moment parameter was analyzed by a Comet Assay IV software (Perceptive Instruments Ltd., Bury St Edmunds, Suffolk, UK).

SMILES	melting point	inhibition at 100 µM (HeLa) [%]	inhibition at 100 µM (MCF-7) [%]	inhibition at 100 µM (A-549) [%]	IC50 [1]	inhibition at 100 µM (RKO) [%]	IC50 (RKO) [µM]	Genotoxic effect in comet assay versus DMSO control (CHO-K1 cells)
CC1=NN(c2ccccc2)C(=O)[C@@]12C(c1ccc(C(F)(F)F)cc1)[C@@]21C(=O)N(c2ccccc2)N=C1C (relative stereo) [4r, (5R*,6R*)-11-(4-Trifluoromethylphenyl)-4,10-dimethyl-2,8-diphenyl-2,3,8,9-tetraazadispiro[4.0.4.1]undeca-3,9-diene-1,7-dione]	154.6 to 156.5 °C	50.2 ± 0.52	45.8 ± 2.11	28.6 ± 3.71	> 300 µM	64.71 ± 0.52	60.7 ± 9.95	–
CC1=NN(c2ccccc2)C(=O)[C@@]12C(c1ccc(OC(F)(F)F)cc1)[C@@]21C(=O)N(c2ccccc2)N=C1C (relative stereo) [4s, (5R*,6R*)-11-(4-Trifluoromethoxyphenyl)-4,10-dimethyl-2,8-diphenyl-2,3,8,9-tetraazadispiro[4.0.4.1]undeca-3,9-diene-1,7-dione]	150.5 to 151.5 °C	43.6 ± 1.75	9.91 ± 3.37	24.4 ± 1.36	> 300 µM	70.2	63.8 ± 6.48	–
COc1ccc(C2[C@@]3(C(=O)N(c4ccccc4)N=C3C)[C@]23C(=O)N(c2ccccc2)N=C3C)cc1 (relative stereo) [4e, (5R*,6R*)-11-(4-Methoxyphenyl)-4,10-dimethyl-2,8-diphenyl-2,3,8,9-tetraazadispiro[4.0.4.1]undeca-3,9-diene-1,7-dione]	163.5 to 165.7 °C	47.8 ± 2.45	4.47 ± 3.48	7.97 ± 1.46	> 300 µM	36.8 ± 1.55	–	–
CC1=NN(c2ccccc2)C(=O)[C@@]12C(c1cccc(F)c1)[C@@]21C(=O)N(c2ccccc2)N=C1C (relative stereo) [4t, (5R*,6R*)-11-(3-Fluorophenyl)-4,10-dimethyl-2,8-diphenyl-2,3,8,9-tetraazadispiro[4.0.4.1]undeca-3,9-diene-1,7-dione]	152.1 to 153 °C	5.06 ± 2.43	31.4 ± 3.65	3.43 ± 2.42	> 300 µM	47.6 ± 0.95	–	did not show differences with respect to the control of DMSO
CSc1ccc(C2[C@]3(C(=O)N(c4ccccc4)N=C3C)[C@@]23C(=O)N(c2ccccc2)N=C3C)cc1 (relative stereo) [4u, (5R*,6R*)-11-(4-Thiomethylphenyl)-4,10-dimethyl-2,8-diphenyl-2,3,8,9-tetraazadispiro[4.0.4.1]undeca-3,9-diene-1,7-dione]	154.4 to 157.3 °C	34.7 ± 2.29	19.5 ± 2.96	3.64 ± 1.81	> 300 µM	41 ± 1.49	–	did not show differences with respect to the control of DMSO
CC1=NN(c2ccccc2)C(=O)[C@@]12C(c1ccccc1[N+](=O)[O-])[C@@]21C(=O)N(c2ccccc2)N=C1C (relative stereo) [4c, (5R*,6R*)-11-(2-Nitrophenyl)-4,10-dimethyl-2,8-diphenyl-2,3,8,9-tetraazadispiro[4.0.4.1]undeca-3,9-diene-1,7-dione]	165.1 to 165.5 °C	24.8 ± 1.74	16.7 ± 5.36	6.1 ± 0.86	> 300 µM	37.3 ± 1.22	–	–
CC1=NN(c2ccccc2)C(=O)[C@@]12C(c1ccccc1)[C@@]21C(=O)N(c2ccccc2)N=C1C (relative stereo) [4b, (5R*,6R*)-4,10-Dimethyl-2,8,11-triphenyl-2,3,8,9-tetraazadispiro[4.0.4.1]undeca-3,9-diene-1,7-dione]	129 to 130 °C	–	7.87 ± 2.92	–	> 300 µM	21.7 ± 2.37	–	did not show differences with respect to the control of DMSO
COC(=O)c1ccc(C2[C@@]3(C(=O)N(c4ccccc4)N=C3C)[C@]23C(=O)N(c2ccccc2)N=C3C)cc1 (relative stereo) [4q, (5R*,6R*)-Methyl-4[4,10-dimethyl-2,8-diphenyl-2,3,8,9-tetraazadispiro[4.0.4.1]undeca-3,9-diene-1,7-dione-11-yl]benzoate]	162.5 to 163.9 °C	31.7 ± 1.52	32.5 ± 2.33	13 ± 1.99	> 300 µM	62.9 ± 1.53	102 ± 7.8	did not show differences with respect to the control of DMSO
CC1=NN(c2ccccc2)C(=O)[C@@]12C(c1cccc([N+](=O)[O-])c1)[C@@]21C(=O)N(c2ccccc2)N=C1C (relative stereo) [4d, (5R*,6R*)-11-(3-Nitrophenyl)-4,10-dimethyl-2,8-diphenyl-2,3,8,9-tetraazadispiro[4.0.4.1]undeca-3,9-diene-1,7-dione]	183.9 to 185 °C	48.6 ± 4.91	39.4 ± 2.29	13.6 ± 0.74	> 300 µM	68.9 ± 1.72	94 ± 4.09	most significant
CC1=NN(c2ccccc2)C(=O)[C@@]12C(c1ccc([N+](=O)[O-])cc1)[C@@]21C(=O)N(c2ccccc2)N=C1C (relative stereo) [4k, (5R*,6R*)-11-(4-Nitrophenyl)-4,10-dimethyl-2,8-diphenyl-2,3,8,9-tetraazadispiro[4.0.4.1]undeca-3,9-diene-1,7-dione]	145.3 to 152.9 °C (dec.)	47.2 ± 1.36	43 ± 3.46	26.7 ± 3.03	234 µM and < 300 µM	67.6 ± 0.77	84 ± 9.46	most significant
COc1ccccc1C1[C@@]2(C(=O)N(c3ccccc3)N=C2C)[C@]12C(=O)N(c1ccccc1)N=C2C (relative stereo) [4f, (5R*,6R*)-11-(2-Methoxyphenyl)-4,10-dimethyl-2,8-diphenyl-2,3,8,9-tetraazadispiro[4.0.4.1]undeca-3,9-diene-1,7-dione]	147.8 to 149 °C	–	–	10.4 ± 3.28	> 300 µM	28.7 ± 0.29	–	–
